Values after ≈ are worked out from the molar mass of the structure shown. Where two headings read alike, the source gives them in different places.
Columns and labels:
[1] = test system: VEGF-induced cell proliferation, or receptor binding; conditions: depending on the target assay; cited from earlier work
COX = conditions: cited from earlier work
[2] = rabbit and monkey, cited from earlier work
[3] = test system: Grade IV choroidal neovascularization (CNV) lesions; conditions: intravitreal injection, all doses tested, cynomolgus monkeys; cited from earlier work
[4] = human eye; listed as ranibizumab; cited from earlier work
[5] = Diffusion coefficients of proteins and small molecules; type: physicochemical; conditions: simulation parameter, Tables 4A and 4E
From the text: If the reservoir solution is aqueous or has a viscosity similar to water, the value for the diffusion coefficient of the therapeutic agent (TA) in water at the temperature of interest may be used.
Small molecules have a diffusion coefficient similar to fluorescein (MW=330, D=4.8 to 6 e-6 cm^2/s from Stay, M S et al. Pharm Res 2003, 20(1), pp. 96-102). For example, the small molecule may comprise a glucocorticoid such as triamcinolone acetonide having a molecular weight of about 435.

[6] = cited from earlier work
[7] = vitreous, input of the calculation; cited from earlier work
[8] = Calculated release of COX inhibitors from the therapeutic device into the vitreous; parameters: species or system human; conditions: from half-life 3 hr
[9] = representative of a small molecule, input of the calculation; cited from earlier work

C[C@]12C=CC(=O)C=C1CC[C@H]1[C@@H]3C[C@@H](O)[C@](O)(C(=O)CO)[C@@]3(C)C[C@H](O)[C@@]12F [triamcinolone]
IC50 [1]: ~1.5 nM

Nc1c(CC(=O)O)cccc1C(=O)c1ccc(Br)cc1 [bromfenac]
IC50 (ug/ml) (Inhibitory Level)* (COX): 0.0025 µg/mL (≈ 0.00748 µM)

ranibizumab [Lucentis™]
Half-life in the vitreous [2]: two to four | Half-life in the vitreous ([2]; listed as ranibizumab): approximately 3 days | Development of Grade IV CNV lesions [3]: completely inhibited | Half-life in the vitreous [4]: 220 h | Diffusion coeff [5]: 1.0E−06 cm2/s

Cc1ccc(-c2cc(C(F)(F)F)nn2-c2ccc(S(N)(=O)=O)cc2)cc1 [celecoxib]
Solubility in water [6]: approximately 3 ug/ml

O=C(c1ccccc1)c1ccc2n1CCC2C(=O)O (stereo not drawn) [ketorolac]
IC50 (ug/ml) (Inhibitory Level)* (COX): 0.007 µg/mL (≈ 0.0274 µM) | Half-life [7]: 3 h | Rate constant, k [8]: 5.545 day⁻¹ | Diffusion coeff [9]: 5.0E−06 cm2/s
